As a reminder, the Cmax is the peak of the concentration-time curve. Usually Kp stands for the ratio of the level in a tissue or fluid to that in plasma or blood.

Each structure is given as a SMILES string.

The values that follow come from patent US20170066717A1, “NEW PHENYLAZETIDINECARBOXYLATE OR -CARBOXAMIDE COMPOUNDS” (INVENTIVA, priority 2014, published 2017).

Data set [1] is described as follows: Plasma pharmacokinetics in mice after oral administration. It counts as in vivo. The conditions noted are these: mouse, male C57/Bl6 mice, oral 10 mg/kg; for AUC: sampling 15 min to 7 h, log-linear trapezoidal method, read-out: AUCplasma; for Cmax: suspension in 1% methylcellulose/0.1% Poloxamer 188. A digest of the protocol:
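Male C57/B16 mice (25-30 g, fed, 9 per dose) received 10 mg/kg by oral gavage as a suspension in 1% methylcellulose 400 cps/0.1% Poloxamer 188/water. Plasma was sampled at 15 min, 30 min, 1 h, 3 h and 7 h and quantified by LC-MS/MS after protein precipitation. Parameters were derived non-compartmentally, with AUC by the log-linear trapezoidal method.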

Data set [2] can be described thus: Brain penetration in rats after intravenous administration. It counts as in vivo. The conditions noted are these: rat; for Kp at 4 h: male, Wistar, intravenous, 4 mg/kg, ratio of Cmax brain to Cmax plasma after the 4 hours of infusion, rats, read-out: Kp (partition coefficient between the brain and the plasma); for Cmax at 4 h: male Wistar rats, 4 mg/kg iv infusion into the jugular vein for 4 hours, plasma at end of infusion. The procedure, abridged: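 Male Wistar rats (250-300 g, fed, n=4) received test compound by 4-hour jugular vein infusion at 4 mg/kg in 2% Cremophor EL/0.9% NaCl. At the end of infusion, plasma and brain homogenate were analysed by LC-MS/MS; Kp is the brain-to-plasma concentration ratio after 4 hours.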

For `CC1(C)CCC(C)(C)c2cc(-c3cccc(N4CC(C(=O)O)C4)c3)ccc21` [Example 10, 1-[5-(1,1,4,4-tetrametyltetralin-6-yl)phenyl]azetidine-3-carboxylic acid], in data set [1], the AUC stood at 25.7 µg·h/mL and the Cmax came to 8.76 µg/mL. For the same compound, in data set [2], the Kp at 4 h was 1.28 and the peak level (Cmax at 4 h) was 4.3 µg/mL.

`CC(C)CC1CN(c2cccc(N3CC(C(=O)O)C3)c2)c2ccc(C(F)(F)F)cc2O1` (centres unmarked) [Example 118, 1-[3-[2-isobutyl-7-(trilfuoromethyl)-2,3-dihydro-1,4-benzoxazin-4-yl]phenyl]azetidine-3-carboxylic acid]: in data set [1], the AUC was found to be 9.82 µg·h/mL and the peak level (Cmax) was 4.6 µg/mL. For the same compound, in data set [2], the partition ratio (Kp) at 4 h was found to be 0.35 and the concentration peaked (Cmax at 4 h) at 3.48 µg/mL.
